The results in this text go back to the METLIN SMRT retention time set (Domingo-Almenara et al. 2019).

The data set in a line: gradient 5% acetonitrile 3 min, to 50% in 2 min, to 85% in 15 min, held 3 min, 100 µL/min. To be noted: column: Zorbax Extend-C18 2.1 x 50 mm; eluents: water / acetonitrile, 0.1% formic acid. Summed up:
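Retention times come from adduct peaks that were picked computationally and then checked by hand. The standards, pure and pooled in mixtures of ~100 molecules, were run on a Zorbax Extend-C18 column (2.1 × 50 mm, 1.8 μm) at 100 μL/min with water and acetonitrile, each with 0.1% formic acid. Detection was by quadrupole time-of-flight mass spectrometry in positive and negative ionization mode, with a dead volume of 40 μL and a dwell volume of 900 μL.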
For `O=C(NCc1ccc(F)cc1F)c1ccc2c(c1)nc1n2CCN(Cc2ccccc2)C1=O`, the RP-LC retention time is 795 s. For `Cc1cccc(NS(=O)(=O)c2cc3c(=O)n(C)ncn3c2)c1` the value was 797 s; for `O=C(c1ccc(=O)n(CCN2CCCC2)c1)N1CCN(c2ccccc2F)CC1`, 619 s; for `COCCN1C(=O)[C@H]2CN(Cc3cccc(OC(F)(F)F)c3)C[C@H]2C1=O`, 706 s. On to `CC(C)NC(=O)c1ccc(Cn2c(SCC#N)nc3cc4c(cc3c2=O)OCO4)cc1`, for which the RP-LC retention time was found to be 759 s. Next, `COc1ccc(Cn2nc3c(S(=O)(=O)N4CCOCC4)cccn3c2=O)cc1F`: 773 s. For the compound `O=C(C1CCCN(c2cnc3nccnc3c2)C1)N1CCN(c2ccccc2F)CC1` (centres undefined), the RP-LC retention time stood at 778 s. The compound `Cc1cc(C(F)F)n2nc(C(=O)Nc3ccc(C(C)C)cc3)nc2n1` yielded an RP-LC retention time of 952 s.

The compound `CCOc1cccc(-c2noc(Cc3nnc(-c4ccc(C)c(F)c4)o3)n2)c1` displayed an RP-LC retention time of 1160 s. On to `CC(=O)Nc1ccc(-c2noc(C3CCCN(C(=O)c4ccsc4)C3)n2)cc1` (centres undefined), for which the RP-LC retention time stood at 766 s. Next, `CCOC(=O)c1c(C)n(C)c2ccccc12`: 887 s; `Cc1ccc2c(=O)c3c([nH]c2c1C)CCN(CC(=O)Nc1ccc(F)c(F)c1)C3`: 646 s. Next, `Cc1noc(C)c1S(=O)(=O)N1CCC2(CC1)CC(OCc1ccccc1)CCO2` (centres undefined): 1070 s. `O=C(Cn1ncc2c(N3CCN(c4ccccn4)CC3)ncnc21)Nc1ccc(Cl)cc1F`: the RP-LC retention time turned out to be 640 s. Next, `CC1CCN(CCCNC(=O)C2(O)c3ccccc3NC(=O)N2c2ccc(Cl)cc2)CC1` (centres undefined): 582 s. On to `CC(C)c1ccc(NC(=O)Cn2ccc3c(=O)n(C)c(=O)n(C)c32)cc1`, for which the RP-LC retention time worked out at 772 s.

For the compound `COc1cc(C(C)=O)ccc1OCC(O)CN1CCN(c2ccc(C)c(Cl)c2)CC1` (centres undefined), the RP-LC retention time was determined as 585 s. `Cc1nnc(NC(=O)c2nc(-c3cnccn3)no2)s1` had an RP-LC retention time of 598 s. For `COc1ccc(NC(=O)N2CCC(n3c(C(F)(F)F)nc4cccnc43)CC2)cc1OC` the value was 768 s; for `COc1ccc(S(=O)(=O)CCC(=O)N2CCCC2c2nc(-c3ccc(C)cc3)no2)cc1` (centres undefined), 951 s; for `O=C(O)c1cc(-c2ccc(F)cc2)nc2ccccc12`, 884 s. In turn, `O=S(=O)(c1ccc(-c2nnc(C3CCC3)o2)o1)N1CCN(C2CCCCC2)CC1` registered an RP-LC retention time of 690 s. In turn, `O=C(NC1CCCCC1)C1CCN(S(=O)(=O)c2cc(C(=O)N3CCCC3)cs2)CC1` yielded an RP-LC retention time of 765 s. With `CC(=O)NCC(=O)NCc1nn(Cc2ccccc2)c2ccccc12`, the RP-LC retention time was 679 s. Next, `CCc1cc(C(=O)N2CCCC2c2cccc(F)c2)no1` (centres undefined): 944 s; `CC(=O)Nc1ccc(NC(=O)Cn2nc(C(=O)N3CCCCC3)c3ccccc32)cc1`: 678 s. Turning to `COc1ccc(C(=O)NC2CCN(c3cc(-c4cccs4)[nH]n3)C2)cc1OC` (centres undefined), the RP-LC retention time came to 638 s. Next, `O=C(c1cccs1)N1CC(Oc2cccc(-c3nc(-c4ccccc4)no3)c2)C1`: 1180 s; `Cc1ccc(CSc2ccc(-n3nc4c(c3C)CCC4)nn2)cc1`: 1370 s. Next, `O=C(NCC(c1ccsc1)N1CCc2ccccc2C1)C(=O)Nc1ccon1` (centres undefined): 572 s.

Regarding `COc1ccc(C)cc1NC(=O)CN1C(=O)NC2(CCC(C)CC2)C1=O` (centres undefined), the RP-LC retention time worked out at 853 s.

Compound `COCCN1C(=O)CCc2cc(NS(=O)(=O)c3ccc(C)c(Cl)c3)ccc21` yielded an RP-LC retention time of 851 s. For `Cc1ccc(-c2csc(NC(=O)c3sc(-c4ccccc4)nc3C)n2)cc1` the value was 1300 s. Turning to `O=C(NCc1cccnc1)c1ccc(-c2ccc(N3CCSCC3)nc2)cc1`, the RP-LC retention time turned out to be 582 s. Consider `CCOc1ccccc1NC(=O)N1CCc2cn(CCOC)c3cccc(c23)C1`, for which the RP-LC retention time turned out to be 827 s. Next, `Cn1nc(C(=O)N2CCOCC2)c2c1CCN(C(=O)Nc1ccccc1)C2`: 658 s; `O=C(Cn1nc2c3c4c(sc3ncn2c1=O)CCCC4)N1CCc2ccccc2C1`: 1140 s; `COc1ccc(N2C=C(C#N)S(=O)(=O)c3ccc(C)cc32)c(OC)c1`: 930 s. For `CCn1cc(-c2nc(C)c(C(=O)Nc3ccccc3C)s2)c2cccnc21` the value was 980 s.

Take `CC(C)c1noc(C2CCCN(C(=O)NC3CCCCC3)CCC(=O)NCC2)n1` (centres undefined): the RP-LC retention time amounted to 752 s. As to `CN1C(=O)c2cccnc2Sc2cc(NC(=O)Cc3cccc(F)c3)ccc21`, the RP-LC retention time was 784 s. `Nc1cc(C2CCN(C(=O)Cc3c(F)cccc3Cl)CC2)no1` had an RP-LC retention time of 723 s. As for `Cn1c(C(=O)NCCCN2CCN(C3CCCCC3)CC2)cc2sccc21`, the RP-LC retention time amounted to 547 s. `CCc1cccc(NC(=O)Cn2ncc3c(N4CCN(c5ccccn5)CC4)ncnc32)c1` came in with an RP-LC retention time of 655 s.

As to `CN1CCN(c2ncncc2N2CCC(C(=O)N3CCN(c4ccccc4)CC3)CC2)CC1`, the RP-LC retention time stood at 570 s. Compound `COc1ccccc1NC(=O)Cn1c(C)nc2c(sc3nc(-c4ccccc4)ccc32)c1=O` yielded an RP-LC retention time of 1090 s. `O=C(NCc1csc(-c2ccccc2)n1)C1CCN(S(=O)(=O)c2ccc(F)c(Cl)c2)CC1` showed an RP-LC retention time of 987 s.

`O=C(CCn1nnc2cc(-c3noc(-c4ccc(F)cc4)n3)ccc21)N1CCCC1` displayed an RP-LC retention time of 903 s. On to `CCOc1ccc(-n2c(N(CC)CC)nc3cc(C(=O)OC)ccc3c2=O)cc1`, for which the RP-LC retention time was determined as 1230 s.

`Cn1ncc2c3ccccc3n(CCCC(=O)NCCCN3CCOCC3)c2c1=O` gave an RP-LC retention time of 593 s. `O=C(CSc1nccn1Cc1ccc2c(c1)OCO2)Nc1ccccc1F`: the RP-LC retention time turned out to be 621 s. For `COc1ccccc1N1CCN(S(=O)(=O)c2cc3c(s2)CCN(C(C)=O)C3)CC1` the value was 838 s. Next, `CCCCNC(=O)c1ccc(-c2nc(CCN(C)C(=O)CC)no2)cc1`: 740 s; `CS(=O)(=O)c1nc2ccc(NS(=O)(=O)c3cc(F)cc(F)c3)cc2s1`: 858 s. As for `Cc1ccc(CNC(=O)c2nc3cccnc3n(CC(C)C)c2=O)cc1`, the RP-LC retention time is 1010 s. Next, `O=C(NCc1ccc(F)cc1)Nc1ccc(-c2nc(-c3ccccc3)co2)cc1`: 1050 s; `COc1ccc(CNC(=O)c2cc3c(s2)CCN(C(C)=O)C3)cc1`: 696 s; `Cc1nnc(NC(=O)c2ccc3c(c2)OCO3)s1`: 646 s. `CC1Cc2ccccc2N1S(=O)(=O)CCCOc1ccc2c(c1)OCO2` (centres undefined) had an RP-LC retention time of 1020 s.
